The source of these data is PMC9413390 (Molecules, 2022).

For one assay, the target named is T1, σ1R (Cavia porcellus, UniProt Q60492).
T1 construct: The thawed membrane preparation of guinea pig brain cortex (250 μg/sample) was incubated; from tissue; host or cells: brain cortex membranes of male Dunkin-Hartley guinea pigs
Briefly: σ1R radioligand competition binding assay ([3H]-(+)-pentazocine, guinea pig brain cortex membranes). As to conditions: for Ki σ2R/σ1R selectivity ratio: ratio of Ki σ2R to Ki σ1R. On the technique in general: In a radioligand displacement assay an active substance lowers the binding of a labelled ligand.

The target of another assay is T2, σ2R (Rattus norvegicus, UniProt Q5U3Y7).
T2 construct: The thawed membrane preparation of rat liver (250 μg/sample) was incubated; from tissue; host or cells: liver membranes of male Sprague-Dawley rats
T2 sequence (Q5U3Y7 1-176): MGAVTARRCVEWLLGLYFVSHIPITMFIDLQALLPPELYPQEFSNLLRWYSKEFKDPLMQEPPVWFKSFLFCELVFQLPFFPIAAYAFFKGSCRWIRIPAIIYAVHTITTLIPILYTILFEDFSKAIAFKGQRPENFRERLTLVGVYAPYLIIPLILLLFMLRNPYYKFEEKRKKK
As to the kind of experiment: σ2R radioligand competition binding assay ([3H]DTG, rat liver membranes).

The next assay deals with T3, MOR (Rattus norvegicus, UniProt P33535).
T3 construct: from tissue; host or cells: brain membranes of male Sprague-Dawley rats
T3 sequence (P33535 whole entry): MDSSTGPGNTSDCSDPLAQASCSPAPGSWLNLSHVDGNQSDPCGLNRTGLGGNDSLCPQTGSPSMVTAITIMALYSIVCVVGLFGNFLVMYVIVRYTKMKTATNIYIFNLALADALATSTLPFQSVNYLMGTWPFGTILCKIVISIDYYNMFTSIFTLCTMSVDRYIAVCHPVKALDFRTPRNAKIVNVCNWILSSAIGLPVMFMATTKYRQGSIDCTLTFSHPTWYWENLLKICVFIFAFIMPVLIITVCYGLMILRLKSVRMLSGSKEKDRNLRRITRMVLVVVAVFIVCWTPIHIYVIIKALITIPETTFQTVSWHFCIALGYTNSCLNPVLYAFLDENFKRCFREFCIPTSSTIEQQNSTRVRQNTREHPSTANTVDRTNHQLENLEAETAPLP
Briefly: MOR radioligand binding assay ([3H]-DAMGO, rat brain membranes).

In the next assay the target is T4, DOR (Rattus norvegicus, UniProt P33533).
T4 construct: from tissue; host or cells: brain membranes of male Sprague-Dawley rats
T4 sequence (P33533 whole entry): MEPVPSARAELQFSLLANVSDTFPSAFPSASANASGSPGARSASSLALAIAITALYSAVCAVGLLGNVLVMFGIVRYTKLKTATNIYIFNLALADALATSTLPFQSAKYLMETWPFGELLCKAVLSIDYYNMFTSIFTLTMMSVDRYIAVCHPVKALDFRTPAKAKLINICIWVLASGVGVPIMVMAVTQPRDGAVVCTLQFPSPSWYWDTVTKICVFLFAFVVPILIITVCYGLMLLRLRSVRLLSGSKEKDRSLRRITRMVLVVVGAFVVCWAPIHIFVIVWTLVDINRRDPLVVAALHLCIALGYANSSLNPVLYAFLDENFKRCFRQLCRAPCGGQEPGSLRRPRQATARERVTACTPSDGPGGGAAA
Briefly: DOR radioligand binding assay ([3H]-Deltorphin II, rat brain membranes).

The target in another assay is T5, KOR (Cavia porcellus, UniProt P41144).
T5 construct: from tissue; host or cells: brain membranes of male Dunkin-Hartley guinea pigs
T5 sequence (P41144 whole entry): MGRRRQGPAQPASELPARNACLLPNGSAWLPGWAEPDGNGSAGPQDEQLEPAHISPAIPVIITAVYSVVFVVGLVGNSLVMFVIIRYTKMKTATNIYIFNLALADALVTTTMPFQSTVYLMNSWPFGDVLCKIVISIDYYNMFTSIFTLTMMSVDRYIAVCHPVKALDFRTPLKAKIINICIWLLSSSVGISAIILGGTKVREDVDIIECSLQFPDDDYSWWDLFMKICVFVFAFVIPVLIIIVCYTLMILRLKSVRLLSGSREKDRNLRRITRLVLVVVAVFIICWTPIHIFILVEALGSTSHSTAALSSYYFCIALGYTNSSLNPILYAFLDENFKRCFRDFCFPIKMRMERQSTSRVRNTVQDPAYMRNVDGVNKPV
Briefly: biochemical. It counts as binding, guinea pig.

Assay [1] deals with formalin-induced pain behaviour. As to the kind of experiment: Mouse formalin test. It counts as in vivo. On the procedure:
Mice injected with 5% formalin into the mid-plantar surface of the right hind paw developed the characteristic formalin-induced pain behaviour, evidenced by a biphasic flinching and lifting/licking response. The time course of formalin-induced behaviours evidenced an immediate and acute nociceptive activity (0–5 min, phase I) that, after a short quiescent period (5–10 min, interphase), was followed by a more prolonged response (10–60 min, phase II).
To evaluate the systemic antinociceptive effect in both phases of the formalin test, vehicle, (−)-2R-LP2 (2) (2mg/kg), (−)-2S-LP2 (3) (0.7 mg/kg), (+)-2R/S-LP2 (7) (5 mg/kg), and (+)-2R-LP2 (8) (5 mg/kg) were administrated intraperitoneally (i.p.) 20 min before formalin injection, at doses chosen in accordance to previous studies.
Experiments were performed on male CD1 mice (Envigo Laboratories, Indianapolis, IN, USA) aged between 8 and 12 weeks. Mice were housed in 5 animals per cage under a 12/12 h light/dark cycle at a constant temperature (23–25 °C) with free access to food and water, and were allowed to acclimate for at least one week upon arrival before starting all experiments, which were conducted between 9:00 a.m. and 3:00 p.m. This study was executed according to the European Communities Council directive and Italian regulation (EEC Council 2010/63/EU and Italian D.Lgs. no. 26/2014) to replace, reduce, and refine the use of laboratory animals. All procedures were approved by the ethical committee of the University of Catania (OPBA) and by the Italian Ministry of Health (authorization n° 385/2021-PR).
Formalin and naloxone hydrochloride were purchased from Merck. PRE-84 synthesis was reported in the supporting information (Figure S7). All compounds were dissolved in pyrogen-free isotonic saline and dimethyl sulfoxide, (DMSO 0.5% v/v). All LP compounds were administrated i.p. 20 min before formalin injection. Naloxone hydrochloride s.c. and PRE-084 hydrochloride s.c. were administered 20 min before the injection of the LP compounds.
Formalin solution (5%, 10 μL) was administered subcutaneously into the plantar surface of the right hind paw (i.pl.), monitoring the nociceptive behavior, such as licking and flicking or shanking the injected paw, for 1 h and recording every 5 min, as previously reported.
The formalin injection induces a rapid pain response (phase I), which lasts about 5 min, due to direct nociceptors’ activation, characterized by an acute form of pain. After a short quiescent period, another behavioral pain form (phase II) occurs, considered more important clinically, characterized by an inflammatory component and persistent pain due to nociceptive sensitization in the dorsal horn of the spinal cord.
Results are expressed as mean ± S.E.M. (n = 8–10 per group). * p < 0.05, ** p < 0.01. Two-way ANOVA was followed by Bonferroni’s multiple comparison test. Statistical analyses were performed using GraphPad Prism version 9.3.1 (GraphPad Software, San Diego, CA, USA).

For assay [2] the test system is unchanged. On the set-up: method as in PMID 32186844, PMID 19587856. As to conditions: mouse, injected alone; cited from earlier work.
The mark [3] stands for this setting: 5 mg/kg i.p. 20 min before formalin, vs vehicle.

Where a name gives a salt, the structure may show the parent alone. Read-outs that look alike come from different tables or passages of the source.

T1 sequence (Q60492 whole entry): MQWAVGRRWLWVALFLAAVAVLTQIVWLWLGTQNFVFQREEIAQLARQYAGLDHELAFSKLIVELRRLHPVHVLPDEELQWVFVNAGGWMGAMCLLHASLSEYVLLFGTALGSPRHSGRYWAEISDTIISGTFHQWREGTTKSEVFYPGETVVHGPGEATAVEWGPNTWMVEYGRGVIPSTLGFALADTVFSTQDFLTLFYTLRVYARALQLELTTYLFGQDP

In the case of `CO[C@H](CN1CC[C@]2(C)c3cc(O)ccc3C[C@H]1[C@H]2C)c1ccccc1` [(+)-2S-LP2 (9), (2S,6S,11S)-3-((S)-2-methoxy-2-phenylethyl)-6,11-dimethyl-1,2,3,4,5,6-hexahydro-2,6-methanobenzo[d]azocin-8-ol], the Ki (usually the equilibrium dissociation constant of an inhibitor or competing ligand from its target) at σ1R was found to be 47 ± 8.82 nM; at σ2R, 2.22 ± 0.417 µM; at MOR it was 1.17 ± 0.03 µM; at DOR, 1.04 ± 0.04 µM; at KOR, 1.45 ± 0.029 µM. The “Ki σ2R/σ1R selectivity ratio” value on σ1R was 47. In assay [1] (setting [3]), the “effect on nociceptive behaviour in the formalin test” value is “did not differ significantly from the vehicle”.

For `CO[C@H](CN1CC[C@@]2(C)c3cc(O)ccc3C[C@@H]1[C@@H]2C)c1ccccc1` [(−)-2S-LP2 (3)], the results for the Ki on σ1R and on σ2R were 113 ± 13.5 nM and 1.01 ± 0.191 µM, respectively. The “analgesic effect, flinching/licking time in both phases of the formalin test” value in assay [1] (0.7 mg/kg i.p. 20 min before 5% formalin) is recorded as “significant analgesic effect”. Moreover, the “antinociceptive effect after naloxone pre-treatment” value in assay [1] (naloxone hydrochloride 3 mg/kg s.c. 20 min before compound 0.7 mg/kg i.p.) was “antagonized”.

Take `O=C(OCCN1CCOCC1)C1(c2ccccc2)CCCCC1` [PRE-084 hydrochloride, 2-morpholinoethyl 1-phenylcyclohexane-1-carboxylate]: the “severity of the first and second phases of formalin-induced pain, given alone” value in assay [2] is on record as “did not change”.

With `CN1CCN(CCc2ccc(Cl)c(Cl)c2)CC1` [BD-1063, reference compound], the Ki at σ1R ([3H]-(+)-pentazocine 2 nM, guinea pig brain cortex membranes, read-out: Ki (nM) ± SD σ1R) was 14 ± 2.7 nM.

For `COC(CN1CC[C@@]2(C)c3cc(O)ccc3C[C@@H]1[C@@H]2C)c1ccccc1` (single isomer, unassigned; (-)) [(−)-2R/S-LP2 (1)], the Ki turned out to be 171 ± 46.1 nM at σ1R and 0.0665 ± 0.0109 µM on σ2R.

For the compound `CO[C@@H](CN1CC[C@]2(C)c3cc(O)ccc3C[C@H]1[C@H]2C)c1ccccc1` [(+)-2R-LP2 (8), (2S,6S,11S)-3-((R)-2-methoxy-2-phenylethyl)-6,11-dimethyl-1,2,3,4,5,6-hexahydro-2,6-methanobenzo[d]azocin-8-ol], the Ki at σ1R turned out to be 47.9 ± 7.52 nM; on σ2R it was 1.91 ± 0.325 µM; on MOR it was 0.789 ± 0.03 µM; at DOR it was 1.01 ± 0.025 µM; at KOR it was 1.61 ± 0.07 µM. Besides, the “Ki σ2R/σ1R selectivity ratio” value on σ1R is listed as 40. Also, in assay [1] (setting [3]), the “effect on nociceptive behaviour in the formalin test” value is listed as “not significative”.

As for `COC(CN1CC[C@]2(C)c3cc(O)ccc3C[C@H]1[C@H]2C)c1ccccc1` (single isomer, unassigned; (+)) [(+)-2R/S-LP2 (7)], the Ki at σ1R was determined as 26.6 ± 2.35 nM; at σ2R, 2.39 ± 0.514 µM; at MOR, 1.14 ± 0.02 µM; at DOR, 1.03 ± 0.035 µM; at KOR, 1.39 ± 0.04 µM. Also, the “severity of the first phase of formalin-induced pain” value in assay [1] (5 mg/kg i.p. 20 min before formalin, phase I) is reported as “did not alter”. Besides, the “second phase of formalin-induced pain (number of flinches, lifting/licking time)” value in assay [1] (5 mg/kg i.p. 20 min before formalin, phase II, vs vehicle) is listed as “significantly decreased”. Also, the “antinociceptive effect after PRE-084 pre-treatment” value in assay [1] (PRE-084 hydrochloride 32 mg/kg s.c. 20 min before compound 5 mg/kg i.p., second phase) is “prevented”.

As to `CO[C@@H](CN1CC[C@@]2(C)c3cc(O)ccc3C[C@@H]1[C@@H]2C)c1ccccc1` [(−)-2R-LP2 (2)], the figures for the inhibitory constant (Ki) on σ1R and on σ2R were 183 ± 21 nM and 0.0667 ± 0.0179 µM, respectively. Besides, the “analgesic effect, flinching/licking time in both phases of the formalin test” value in assay [1] (2 mg/kg i.p. 20 min before 5% formalin) is reported as “same profile with a minor potency”.
